# Measured values reported in US20240041976A1, “COMPOSITION AND USE” (priority 2020, published 2024).
# Experiments:
# Format in all cases: cell-based, Staphylococcus aureus
# S. aureus Newman = assay: Planktonic cell growth inhibition assay (MIC50, liquid culture)
# Experimental: (§1) Growth inhibition assays were performed in 96-well microtiter plates as described previously (Chi and Holo, 2018, supra). Briefly, 135 μl of TSB were dispensed in each well of a microtiter plate (according to the number of bacterial strains tested) except in the wells of the first row. The antimicrobials were diluted in TSB to working concentrations in a final volume of 285 μl and dispensed in the wells of the first row. The working concentrations were 100 μg/μl for garvicin KS, 10 μg/μl for micrococcin P1 and 1 mg/ml for penicillin G. From the first row, 150 μl of the antimicrobials were then serially diluted (two-fold dilutions) in a sequential fashion until the last row of the plate. Finally, 15 μl of a fresh O/N culture of each strain were added in the appropriate wells to reach a final volume of 150 μl in each well. The plates were then incubated at 37° C. for 24 h. The growth inhibition was expressed as minimum inhibitory concentration (MIC50), which refers to the minimum concentration of the antimicrobial needed to reduce at least 50% of the microbial growth compared to the untreated control. The MIC50 was assessed by optical density readings at 600 nm (O.D.600).
# (§2) Synergistic interactions between antimicrobials were determined using the fractional inhibition concentration (FIC). The FIC values were calculated as follows: the sum of the FIC =FICa+FICb+FICc, where the FICa means MIC of A in combination/MIC of A alone, FICb means MIC of B in combination/MIC of B, and FICc means MIC of C in combination/MIC of C alone. Effects were considered as synergistic if FIC was ≤0.5 for two components mixture and ≤0.75 for three components mixture.
# S. aureus USA 300 = assay: as above
# Experimental: as §1, §2
# S. aureus ATTC 10832 = assay: as above
# Experimental: as §1, §2
# S. aureus ATTC 33591 = assay: as above
# Experimental: as §1, §2
# S. aureus ATTC 29213 = assay: as above
# Experimental: as §1, §2
# S.a. 3255 = assay: as above
# Experimental: as §1, §2
# [1] = test system: three MRSA strains (ATCC33591-lux, USA-300 and MRSA 43484); assay: AAMP assay and checkerboard synergy, summary
# Experimental: Briefly, equal amounts of antimicrobial A were applied on microtiter plate 1 in wells A1-H1 and then diluted two-fold to wells 2-12. Similarly, equal amounts of antimicrobial B were applied on microtiter plate 2 in wells A1-A12 and diluted two-fold in wells B-H. Volumes of 50 μl of antimicrobial A from each well of microtiter plate 1 were transferred into microtiter plate 3, except for wells H1-H12. Similarly, the same volumes were transferred from microtiter plate 2 into plate 3, except for wells A1-A8. […] A 50 μl volume of pure broth was added into each well in lines H1-H12 and A1-A8 which were used to estimate MIC values of pure substances (blank).
# (§3) Three-component synergy was assessed by mixing the three components (100 μg of PenG, 50 μg of GarKS and 2.5 μg of MP1) into one well of a microtiter plate, compared with activity of individual antimicrobials on the same plate.
# S. aureus LMG3328 = assay: AAMP assay (MIC), single components and formulation mixture; settings: Staphylococcus aureus, LMG3328, 24 h; read-out: MIC, single component
# Experimental: (§4) Antimicrobial activity was measured using the AAMP assay (Wiegand et al., 2008, Nat. Protoc., Vol. 3(2), p 163-175).
# as §3, with “plate. The fractional inhibition concentration (FIC) which was used to define synergy was calculated as set forth in Example 1.” for “plate.”
# S. aureus LMG3265 = assay: as above; settings: Staphylococcus aureus, LMG3265, 24 h; read-out: MIC, single component
# Experimental: as §4
# as §3, with “plate. The fractional inhibition concentration (FIC) which was used to define synergy was calculated as set forth in Example 1.” for “plate.”
# S. aureus LMG3258 = assay: as above; settings: Staphylococcus aureus, LMG3258, 24 h; read-out: MIC, single component
# Experimental: as §4
# as §3, with “plate. The fractional inhibition concentration (FIC) which was used to define synergy was calculated as set forth in Example 1.” for “plate.”
# S. aureus LMG3271 = assay: as above; settings: Staphylococcus aureus, LMG3271, 24 h; read-out: MIC, single component
# Experimental: as §4
# as §3, with “plate. The fractional inhibition concentration (FIC) which was used to define synergy was calculated as set forth in Example 1.” for “plate.”
# S. aureus LMG3307 = assay: as above; settings: Staphylococcus aureus, LMG3307, 24 h; read-out: MIC, single component
# Experimental: as §4
# as §3, with “plate. The fractional inhibition concentration (FIC) which was used to define synergy was calculated as set forth in Example 1.” for “plate.”
# S. aureus LMG3322 = assay: as above; settings: Staphylococcus aureus, LMG3322, 24 h; read-out: MIC, single component
# Experimental: as §4
# as §3, with “plate. The fractional inhibition concentration (FIC) which was used to define synergy was calculated as set forth in Example 1.” for “plate.”
# S. aureus LMG3026 = assay: as above; settings: Staphylococcus aureus, LMG3026, 24 h; read-out: MIC, single component
# Experimental: as §4
# as §3, with “plate. The fractional inhibition concentration (FIC) which was used to define synergy was calculated as set forth in Example 1.” for “plate.”
# S. aureus LMG3255 = assay: as above; settings: Staphylococcus aureus, LMG3255, 24 h; read-out: MIC, single component
# Experimental: as §4
# as §3, with “plate. The fractional inhibition concentration (FIC) which was used to define synergy was calculated as set forth in Example 1.” for “plate.”
# [2] = Staphylococcus aureus, individual component, read-out: MIC50
# [3] = garvicin KS + micrococcin P1 + penicillin G
# [4] = triple combination PenG, GarKS and MP1
smiles,measurement,setting,value
"C/C=C(\NC(=O)c1csc(-c2csc(-c3ccc4c(n3)-c3csc(n3)[C@H]([C@@H](C)O)NC(=O)c3csc(n3)[C@H](C(C)C)NC(=O)c3csc(n3)/C(=C/C)NC(=O)[C@H]([C@@H](C)O)NC(=O)c3csc-4n3)n2)n1)C(=O)NC[C@@H](C)O [MP1, micrococcin P1]",MIC50,S. aureus Newman; [2],0.313 µg/mL
same,MIC50 of the component in combination,S. aureus Newman; garvicin KS + micrococcin P1,0.313 µg/mL
same,MIC50 of the component in combination,S. aureus Newman; [3],<0.078 µg/mL
same,MIC50,"S. aureus USA 300; Staphylococcus aureus, USA300, individual component, read-out: MIC50",0.63 µg/mL
same,MIC50 of the component in combination,S. aureus USA 300; garvicin KS + micrococcin P1,0.156 µg/mL
same,MIC50 of the component in combination,S. aureus USA 300; [3],0.63 µg/mL
same,MIC50,"S. aureus ATTC 10832; Staphylococcus aureus, ATTC10832, individual component, read-out: MIC50",0.63 µg/mL
same,MIC50 of the component in combination,S. aureus ATTC 10832; garvicin KS + micrococcin P1,0.63 µg/mL
same,MIC50 of the component in combination,S. aureus ATTC 10832; [3],<0.078 µg/mL
same,MIC50,"S. aureus ATTC 33591; Staphylococcus aureus, ATTC33591, individual component, read-out: MIC50",> 10 µg/mL
same,MIC50 of the component in combination,S. aureus ATTC 33591; garvicin KS + micrococcin P1,1.3 µg/mL
same,MIC50 of the component in combination,S. aureus ATTC 33591; [3],1.3 µg/mL
same,MIC50,"S. aureus ATTC 29213; Staphylococcus aureus, ATTC29213, individual component, read-out: MIC50",2.5 µg/mL
same,MIC50 of the component in combination,S. aureus ATTC 29213; garvicin KS + micrococcin P1,1.3 µg/mL
same,MIC50 of the component in combination,S. aureus ATTC 29213; [3],0.31 µg/mL
same,MIC50,S.a. 3255; [2],10 µg/mL
same,MIC50 of the component in combination,S.a. 3255; garvicin KS + micrococcin P1,1.3 µg/mL
same,MIC50 of the component in combination,S.a. 3255; [3],<0.078 µg/mL
same,MIC of the antimicrobial in comb. with GarKS,[1]; All three strains,0.16 µg/mL
same,MIC of the component when combined,[1]; MP1 with PenG,0.16 to 0.3 µg/mL
same,reduction of MIC when combined,[1]; MP1 with PenG,8-16 times
same,MIC of the component when GarKS and MP1 are combined,[1]; checkerboard assay,0.16 µg/mL
same,MIC of the component when combined,[1]; [4],0.08 µg/mL
same,reduction of MIC when combined,[1]; [4],about 30 times
same,MIC,S. aureus LMG3328,0.9 µg/mL
same,MIC,S. aureus LMG3265,1.8 µg/mL
same,MIC,S. aureus LMG3258,1.8 µg/mL
same,MIC,S. aureus LMG3271,> 1.8 µg/mL
same,MIC,S. aureus LMG3307,0.9 µg/mL
same,MIC,S. aureus LMG3322,> 1.8 µg/mL
same,MIC,S. aureus LMG3026,> 1.8 µg/mL
same,MIC,S. aureus LMG3255,> 1.8 µg/mL
